Experimental data taken from patent publication US20110178064A1, “SPIRO CONDENSED […] DERIVATIVES FOR USE AS ANTIBACTERIAL” (A[…]&D, priority 2007, published 2011).

Target: Escherichia coli DNA gyrase A/B tetramer (Escherichia coli, UniProt P0AES4+P0AES6)
Test: DNA gyrase supercoiling activity fluorescence polarisation assay
Type: biochemical
Method: The supercoiling reactions may be quenched by the addition of 10 microliters/well of 40 nM oligodeoxynucleotide probe in 3× triplex-forming buffer consisting of 150 mM NaCl, and 150 mM sodium acetate at pH 3.5. The oligodeoxynucleotide probe may be 5′-BODIPY-FL-labeled […]. After 60 minutes, the fluorescence anisotropy of the BODIPY-FL may be measured in a Tecan Ultra plate reader, using 485 nm excitation and 535 nm emission filters equipped with polarizers. The IC50 may be determined by nonliner regression using two control reactions. The first contains no test compound but 0.8% DMSO (100% activity) while the second control reaction contains 5 uM Ciprofloxacin and 0.8% DMSO (0% activity).

Sequence of Escherichia coli DNA gyrase A/B tetramer (P0AES4 whole entry, one chain of several): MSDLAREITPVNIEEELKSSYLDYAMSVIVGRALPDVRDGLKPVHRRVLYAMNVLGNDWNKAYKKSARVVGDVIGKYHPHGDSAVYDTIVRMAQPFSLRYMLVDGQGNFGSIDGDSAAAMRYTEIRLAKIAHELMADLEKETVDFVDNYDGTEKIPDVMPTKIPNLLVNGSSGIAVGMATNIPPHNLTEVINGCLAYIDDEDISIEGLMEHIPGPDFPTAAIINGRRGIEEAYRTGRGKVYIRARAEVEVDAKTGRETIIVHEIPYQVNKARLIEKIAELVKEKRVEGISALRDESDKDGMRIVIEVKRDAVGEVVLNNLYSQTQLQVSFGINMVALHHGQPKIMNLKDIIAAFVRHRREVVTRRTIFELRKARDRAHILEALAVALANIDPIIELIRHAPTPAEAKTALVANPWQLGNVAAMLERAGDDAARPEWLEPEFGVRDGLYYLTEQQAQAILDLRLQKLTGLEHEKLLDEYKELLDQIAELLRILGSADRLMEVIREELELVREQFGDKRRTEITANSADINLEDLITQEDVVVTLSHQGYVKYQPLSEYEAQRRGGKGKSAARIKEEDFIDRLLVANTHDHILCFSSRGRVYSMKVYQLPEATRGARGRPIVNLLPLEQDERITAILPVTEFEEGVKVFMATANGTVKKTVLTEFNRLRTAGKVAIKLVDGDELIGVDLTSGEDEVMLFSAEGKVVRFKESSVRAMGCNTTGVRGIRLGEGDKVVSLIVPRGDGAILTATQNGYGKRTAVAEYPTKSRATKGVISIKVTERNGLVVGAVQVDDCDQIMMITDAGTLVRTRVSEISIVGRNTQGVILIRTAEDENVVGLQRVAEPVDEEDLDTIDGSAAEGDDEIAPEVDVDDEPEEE

`Cc1ccc(-c2cnc3c(c2)CC2(C(=O)NC(=O)NC2=O)[C@H]2[C@H](C)O[C@H](C)CN32)s1` (relative stereo) [Example 29, (6aS,7S,9R)-rel-7,9-Dimethyl-3-(5-methylthiophen-2-yl)-6a,7,9,10-tetrahydro-2′H,5H-spiro[1,4oxazino[4,3-a][1,8]naphthyridine-6,5′-pyrimidine]-2′,4′,6′(1′H,3′H)-trione] and `Cc1ccsc1-c1cnc2c(c1)CC1(C(=O)NC(=O)NC1=O)[C@H]1[C@H](C)O[C@H](C)CN21` (relative stereo) [Example 30, (6aS,7S,9R)-rel-7,9-Dimethyl-3-(3-methylthiophen-2-yl)-6a,7,9,10-tetrahydro-2′H,5H-spiro[1,4-oxazino[4,3-a][1,8]naphthyridine-6,5′-pyrimidine]-2′,4′,6′(1′H,3′H)-trione] are within 1.5-fold of each other in IC50: 9 µM for the first, 12 µM for the second.

Compared with `C[C@@H]1CN2c3ncc(-c4ccc(-c5nnn[nH]5)s4)cc3CC3(C(=O)NC(=O)NC3=O)[C@H]2[C@H](C)O1` (relative stereo) [Example 31, (6aS,7S,9R)-rel-7,9-Dimethyl-3-[5-(1H-tetrazol-5-yl)thiophen-2-yl]-6a,7,9,10-tetrahydro-2′H,5H-spiro[1,4-oxazino[4,3-a][1,8]naphthyridine-6,5′-pyrimidine]-2′,4′,6′(1′H,3′H)-trione], `C[C@@H]1CN2c3ncc(-c4ccc(-c5ccn[nH]5)s4)cc3CC3(C(=O)NC(=O)NC3=O)[C@H]2[C@H](C)O1` (relative stereo) [Example 36, (6aS,7S,9R)-rel-7,9-Dimethyl-3-[5-(1H-pyrazol-5-yl)thiophen-2-yl]-6a,7,9,10-tetrahydro-2′H,5H-spiro[1,4-oxazino[4,3-a][1,8]naphthyridine-6,5′-pyrimidine]-2′,4′,6′(1′H,3′H)-trione] is 3-fold lower in IC50: 6 µM for the first, 2 µM for the second. The second is the more potent here.

Compared with `C[C@@H]1CN2c3ncc(-c4cn(C)cn4)cc3CC3(C(=O)NC(=O)NC3=O)[C@H]2[C@H](C)O1` (relative stereo) [Example 33, (6aS,7S,9R)-rel-7,9-Dimethyl-3-(1-methyl-1H-imidazol-4-yl)-6a,7,9,10-tetrahydro-2′H,5H-spiro[1,4-oxazino[4,3-a][1,8]naphthyridine-6,5′-pyrimidine]-2′,4′,6′(1′H,3′H)-trione], `C[C@@H]1CN2c3ncc(-c4c[nH]cn4)cc3CC3(C(=O)NC(=O)NC3=O)[C@H]2[C@H](C)O1` (relative stereo) [Example 37, (6aS,7S,9R)-rel-3-(1H-Imidazol-4-yl)-7,9-dimethyl-6a,7,9,10-tetrahydro-2′H,5H-spiro[1,4-oxazino[4,3-a][1,8]naphthyridine-6,5′-pyrimidine]-2′,4′,6′(1′H,3′H)-trione] is 4-fold lower in IC50: 48 µM for the first, 12 µM for the second.

Compared with `C[C@@H]1CN2c3ncc(-c4ncc[nH]4)cc3CC3(C(=O)NC(=O)NC3=O)[C@H]2[C@H](C)O1` (relative stereo) [Example 35, (6aS,7S,9R)-rel-3-(1H-Imidazol-2-yl)-7,9-dimethyl-6a,7,9,10-tetrahydro-2′H,5H-spiro[1,4-oxazino[4,3-a][1,8]naphthyridine-6,5′-pyrimidine]-2′,4′,6′(1′H,3′H)-trione], `C[C@@H]1CN2c3ncc(-c4ccccn4)cc3CC3(C(=O)NC(=O)NC3=O)[C@H]2[C@H](C)O1` (relative stereo) [Example 38, (6aS,7S,9R)-rel-7,9-Dimethyl-3-(pyridin-2-yl)-6a,7,9,10-tetrahydro-2′H,5H-spiro[1,4-oxazino[4,3-a][1,8]naphthyridine-6,5′-pyrimidine]-2′,4′,6′(1′H,3′H)-trione] is lower in IC50: > 40 µM for the first, 12 µM for the second.

First: C[C@@H]1CN2c3ncc(-c4nc5ccccc5[nH]4)cc3CC3(C(=O)NC(=O)NC3=O)[C@H]2[C@H](C)O1 (relative stereo) [Example 40, (6aS,7S,9R)-rel-3-(1H-Benzimidazol-2-yl)-7,9-dimethyl-6a,7,9,10-tetrahydro-2′H,5H-spiro[1,4-oxazino[4,3-a][1,8]naphthyridine-6,5′-pyrimidine]-2′,4′,6′(1′H,3′H)-trione]
Second: C[C@@H]1CN2c3ncc(-c4cccc5cccnc45)cc3CC3(C(=O)NC(=O)NC3=O)[C@H]2[C@H](C)O1 (relative stereo) [Example 47, (6aS,7S,9R)-rel-7,9-Dimethyl-3-(quinolin-8-yl)-6a,7,9,10-tetrahydro-2′H,5H-spiro[1,4-oxazino[4,3-a][1,8]naphthyridine-6,5′-pyrimidine]-2′,4′,6′(1′H,3′H)-trione]
The IC50 of the first is lower: 6 µM for the first, > 83 µM for the second. The first is the more potent here.

`C[C@@H]1CN2c3ncc(-c4ccc(Cl)cn4)cc3CC3(C(=O)NC(=O)NC3=O)[C@H]2[C@H](C)O1` (relative stereo) [Example 42, (6aS,7S,9R)-rel-3-(5-chloropyridin-2-yl)-7,9-dimethyl-6a,7,9,10-tetrahydro-2′H,5H-spiro[1,4-oxazino[4,3-a][1,8]naphthyridine-6,5′-pyrimidine]-2′,4′,6′(1′H,3′H)-trione] and `C[C@@H]1CN2c3ncc(-c4cnccn4)cc3CC3(C(=O)NC(=O)NC3=O)[C@H]2[C@H](C)O1` (relative stereo) [Example 52, (6aS,7S,9R)-rel-7,9-Dimethyl-3-(pyrazin-2-yl)-6a,7,9,10-tetrahydro-2′H,5H-spiro[1,4-oxazino[4,3-a][1,8]naphthyridine-6,5′-pyrimidine]-2′,4′,6′(1′H,3′H)-trione] are within 1.5-fold of each other in IC50: 4 µM for the first, 5 µM for the second.

First: COc1ccncc1-c1cnc2c(c1)CC1(C(=O)NC(=O)NC1=O)[C@H]1[C@H](C)O[C@H](C)CN21 (relative stereo) [Example 43, (6aS,7S,9R)-rel-3-(4-Methoxypyridin-3-yl)-7,9-dimethyl-6a,7,9,10-tetrahydro-2′H,5H-spiro[1,4-oxazino[4,3-a][1,8]naphthyridine-6,5′-pyrimidine]-2′,4′,6′(1′H,3′H)-trione]
Second: C[C@@H]1CN2c3ncc(-c4ccncc4)cc3CC3(C(=O)NC(=O)NC3=O)[C@H]2[C@H](C)O1 (relative stereo) [Example 50, (6aS,7S,9R)-rel-7,9-Dimethyl-3-(pyridin-4-yl)-6a,7,9,10-tetrahydro-2′H,5H-spiro[1,4-oxazino[4,3-a][1,8]naphthyridine-6,5′-pyrimidine]-2′,4′,6′(1′H,3′H)-trione]
The IC50 of the first is 1.5-fold higher: 12 µM for the first, 8 µM for the second. The second is the more potent here.

Going from `C[C@@H]1CN2c3ncc(-c4cncnc4)cc3CC3(C(=O)NC(=O)NC3=O)[C@H]2[C@H](C)O1` (relative stereo) [Example 45, (6aS,7S,9R)-rel-7,9-Dimethyl-3-(pyrimidin-5-yl)-6a,7,9,10-tetrahydro-2′H,5H-spiro[1,4-oxazino[4,3-a][1,8]naphthyridine-6,5′-pyrimidine]-2′,4′,6′(1′H,3′H)-trione] to `C[C@@H]1CN2c3cnc(-c4cncnc4)cc3CC3(C(=O)NC(=O)NC3=O)[C@H]2[C@H](C)O1` (relative stereo) [Example 60, (6aS,7S,9R)-rel-7,9-Dimethyl-3-(pyrimidin-5-yl)-6a,7,9,10-tetrahydro-2′H,5H-spiro[1,4-oxazino[4,3-a][1,7]naphthyridine-6,5′-pyrimidine]-2′,4′,6′(1′H,3′H)-trione], the IC50 falls from 30 µM to 6 µM (5-fold).

Compared with `C[C@@H]1CN2c3ncc(-c4ccoc4)cc3CC3(C(=O)NC(=O)NC3=O)[C@H]2[C@H](C)O1` (relative stereo) [Example 48, (6aS,7S,9R)-rel-3-(Furan-3-yl)-7,9-dimethyl-6a,7,9,10-tetrahydro-2′H,5H-spiro[1,4-oxazino[4,3-a][1,8]naphthyridine-6,5′-pyrimidine]-2′,4′,6′(1′H,3′H)-trione], `C[C@@H]1CN2c3cnc(-c4ccoc4)cc3CC3(C(=O)NC(=O)NC3=O)[C@H]2[C@H](C)O1` (relative stereo) [Example 63, (6aS,7S,9R)-rel-3-(furan-3-yl)-7,9-dimethyl-6a,7,9,10-tetrahydro-2′H,5H-spiro[1,4-oxazino[4,3-a][1,7]naphthyridine-6,5′-pyrimidine]-2′,4′,6′(1′H,3′H)-trione] is 2.1-fold higher in IC50: 17 µM for the first, 35 µM for the second.

Compared with `Cc1noc(C)c1-c1cnc2c(c1)CC1(C(=O)NC(=O)NC1=O)[C@H]1[C@H](C)O[C@H](C)CN21` (relative stereo) [Example 49, (6aS,7S,9R)-rel-3-(3,5-Dimethylisoxazol-4-yl)-7,9-dimethyl-6a,7,9,10-tetrahydro-2′H,5H-spiro[1,4-oxazino[4,3-a][1,8]naphthyridine-6,5′-pyrimidine]-2′,4′,6′(1′H,3′H)-trione], `C[C@@H]1CN2c3cnc(-c4ccnn4C)cc3CC3(C(=O)NC(=O)NC3=O)[C@H]2[C@H](C)O1` (relative stereo) [Example 57, (6aS,7S,9R)-rel-7,9-dimethyl-3-(1-methyl-1H-pyrazol-5-yl)-6a,7,9,10-tetrahydro-2′H,5H-spiro[1,4-oxazino[4,3-a][1,7]naphthyridine-6,5′-pyrimidine]-2′,4′,6′(1′H,3′H)-trione] is 3.3-fold lower in IC50: 30 µM for the first, 9 µM for the second.

First: C[C@@H]1CN2c3cnc(-c4ccccn4)cc3CC3(C(=O)NC(=O)NC3=O)[C@H]2[C@H](C)O1 (relative stereo) [Example 55, (6aS,7S,9R)-rel-7,9-Dimethyl-3-(pyridin-2-yl)-6a,7,9,10-tetrahydro-2′H,5H-spiro[1,4-oxazino[4,3-a][1,7]naphthyridine-6,5′-pyrimidine]-2′,4′,6′(1′H,3′H)-trione]
Second: C[C@@H]1CN2c3cnc(-c4cccc5cccnc45)cc3CC3(C(=O)NC(=O)NC3=O)[C@H]2[C@H](C)O1 (relative stereo) [Example 62, (6aS,7S,9R)-rel-7,9-Dimethyl-3-(quinolin-8-yl)-6a,7,9,10-tetrahydro-2′H,5H-spiro[1,4-oxazino[4,3-a][1,7]naphthyridine-6,5′-pyrimidine]-2′,4′,6′(1′H,3′H)-trione]
The IC50 of the first is 2.6-fold higher: 21 µM for the first, 8 µM for the second.

`C[C@@H]1CN2c3cnc(-c4cn[nH]c4)cc3CC3(C(=O)NC(=O)NC3=O)[C@H]2[C@H](C)O1` (relative stereo) [Example 59, (6aS,7S,9R)-rel-7,9-Dimethyl-3-(1H-pyrazol-4-yl)-6a,7,9,10-tetrahydro-2′H,5H-spiro[1,4-oxazino[4,3-a][1,7]naphthyridine-6,5′-pyrimidine]-2′,4′,6′(1′H,3′H)-trione] showed an IC50 of 50 µM.
